Counter-ions that a name gives are not always drawn. Like-named read-outs stand apart in the source and are kept apart here.
Assays:
[1] = system: Serratia marcescens (ATCC 13880); assay: Stand-alone biocidal test without organic soil; format: cell-based; settings: 25 ppm in BBS; for Stand-alone biocidal result (microbial log reduction) S. marcescens: without organic soil
Method: (§1) A test was conducted to study the microbiocidal efficacy of a solution containing a quaternary ammonium ester of the present invention employing borate buffered saline (BBS). The antimicrobial efficacy of each of the various compositions for the chemical disinfection of contact lenses was evaluated. Microbial challenge inoculums were prepared using Pseudomonas aeruginosa (ATCC 9027), Staphylococcus aureus (ATCC 6538), Serratia marcescens (ATCC 13880), Candida albicans (ATCC 10231) and Fusarium solani (ATCC 36031). The test organisms were cultured on appropriate agar and the cultures were harvested using sterile DPBST (Dulbecco's Phosphate Buffered Saline plus 0.05 percent weight/volume polysorbate 80) or a suitable diluent and transferred to a suitable vessel. Spore suspensions were filtered through sterile glass wool to remove hyphal fragments. Serratia marcescens, as appropriate, was filtered through a 1.2 mμ filter to clarify the suspension. After harvesting, the suspension was centrifuged at no more than 5000×g for a maximum of 30 minutes at 20 to 25° C. The supernatant was poured off and resuspended in DPBST or other suitable diluent. The suspension was centrifuged a second time, and resuspended in DPBST or other suitable diluent. All challenge bacterial and fungal cell suspensions were adjusted with DPBST or other suitable diluent to 1×10^7 to 1×10^8 cfu/ml. The appropriate cell concentration may be estimated by measuring the turbidity of the suspension, for example, using a spectrophotometer at a preselected wavelength, for example 490 nm. One tube was prepared containing a minimum of 10 ml of test solution per challenge organism. Each tube of the solution to be tested was inoculated with a suspension of the test organism sufficient to provide a final count of 1×10^5 to 1×10^6 cfu/ml, the volume of the inoculum not exceeding 1 percent of the sample volume. Dispersion of the inoculum was ensured by vortexing the sample for at least 15 seconds. The inoculated product was stored at 10 to 25° C. Aliquots in the amount of 1.0 ml were taken of the inoculated product for determination of viable counts after certain time periods of disinfection. The time points for the bacteria were, for example, 1, 2, 3 and 4 hours when the proposed regimen soaking time was four hours. Yeast and mold were tested at an additional timepoint of 16 hours (4 times the regimen time). The suspension was mixed well by vortexing vigorously for at least 5 seconds. The 1.0 ml aliquots removed at the specified time intervals were subjected to a suitable series of decimal dilutions in validated neutralizing media. The suspensions were mixed vigorously and incubated for a suitable period of time to allow for neutralization of the microbial agent at room temperature. The viable count of organisms was determined in appropriate dilutions by preparation of triplicate plates of trypticase soy (TSA) agar for bacteria and Sabouraud dextrose agar (SDA) for mold and yeast. The bacterial recovery plates were incubated at 30 to 35° C. for two to four days. The yeast was incubated at 20 to 30° C. for two to four days and mold recovery plates were incubated at 20 to 25° C. for three to seven days. The average number of colony forming units was determined on countable plates. Countable plates refer to 30 to 300 cfu/plates for bacteria and yeast, and 8 to 80 cfu/plate for mold except when colonies are observed only for the 10^0 or 10^−1 dilution plates. The microbial reduction was then calculated at the specified time points. […] Following inoculation in a validated neutralizing broth and incubation for an appropriate period of time, the inoculum control must be between 1.0×10^5 to 1.0×10^6 cfu/ml. […]

[2] = system: Pseudomonas aeruginosa (ATCC 9027); assay: Stand-alone biocidal test without organic soil; format: cell-based; settings: 25 ppm in BBS; for Stand-alone biocidal result (microbial log reduction) P. aeruginosa: without organic soil
Method: as §1

[3] = system: Fusarium solani (ATCC 36031); assay: Stand-alone biocidal test without organic soil; format: cell-based; settings: 25 ppm in BBS; for log reduction at 25 ppm: Fusarium solani, ATCC36031, without organic soil, read-out: Stand-alone biocidal result (microbial log reduction) F. solani
Method: as §1

[4] = system: Candida albicans (ATCC 10231); assay: Stand-alone biocidal test without organic soil; format: cell-based; settings: 25 ppm in BBS; for log reduction at 25 ppm: Candida albicans, ATCC10231, without organic soil, read-out: Stand-alone biocidal result (microbial log reduction) C. albicans
Method: as §1

[5] = system: Staphylococcus aureus (ATCC 6538); assay: Stand-alone biocidal test without organic soil; format: cell-based; settings: 25 ppm in BBS; for Stand-alone biocidal result (microbial log reduction) S. aureus: without organic soil
Method: as §1

`CCCCCCCCCCCCCC(=O)OCCC[N+](C)(C)Cc1ccccc1` (as salt: chloride) [Compound 1, N-myristoyloxypropyl-N-benzyl-N,N-dimethylammonium chloride] gave a melting point of 93 to 95 °C.

In the case of `CCCCCCCC(=O)OCCC[N+](C)(C)C` (as salt: iodide) [Compound 2, N-capryloyloxypropyl-N,N,N-trimethylammonium iodide], the melting point is reported as 107 to 109 °C.

With `CCCCCCCCCCCC(=O)OCCC[N+](C)(C)C` (as salt: iodide) [Compound 4, N-lauroyloxypropyl-N,N,N-trimethylammonium iodide] the melting point was 121 to 124 °C.

For `CCCCCCCCCCCCCC(=O)OCCC[N+](C)(C)C` (as salt: iodide) [Compound 5, N-myristoyloxypropyl-N,N,N-trimethylammonium iodide], the melting point was 118 to 120 °C.

Molecule `CCCCCCCCCCCCCCCC(=O)OCCC[N+](C)(C)C` (as salt: iodide) [Compound 6, N-palmitoyloxypropyl-N,N,N-trimethylammonium iodide] has a melting point of 116 to 118 °C.

In the case of `CCCCCCCCCCCCCCCCCC(=O)OCCC[N+](C)(C)C` (as salt: iodide) [Compound 7, N-stearoyloxypropyl-N,N,N-trimethylammonium iodide], the melting point is reported as 116 to 118 °C.

Work on `CCCCCCCCCCCCCC(=O)OCCC[N+](C)(C)CC` (as salt: iodide) [Compound 8, N-myristoyloxypropyl-N,N-dimethyl-N-ethylammonium iodide] yielded a melting point of 60 to 62 °C.

For `CCCCCCCC(=O)OCCC[N+](C)(C)C` [Compound 2, N-capryloyloxypropyl-N,N,N-trimethylammonium iodide], the “Stand-alone biocidal result (microbial log reduction) S. marcescens” value ([1]; 1 hr.) was “TNTC”, the “Stand-alone biocidal result (microbial log reduction) S. marcescens” value ([1]; 4 hr.) was “TNTC” and the “Stand-alone biocidal result (microbial log reduction) P. aeruginosa” value ([2]; 1 hr.) was “TNTC”. For the same molecule, the “Stand-alone biocidal result (microbial log reduction) P. aeruginosa” value ([2]; 4 hr.) was “TNTC”, the log reduction at 25 ppm ([3]; 1 hr.) was 0.1 and the log reduction at 25 ppm ([3]; 4 hr.) was 0.6. The log reduction at 25 ppm ([4]; 1 hr.) was 0, the log reduction at 25 ppm ([4]; 4 hr.) was 0.2 and the “Stand-alone biocidal result (microbial log reduction) S. aureus” value ([5]; 1 hr.) was “TNTC”. The “Stand-alone biocidal result (microbial log reduction) S. aureus” value ([5]; 4 hr.) was “TNTC”.

With `CCCCCCCCCCCC(=O)OCCC[N+](C)(C)C` [Compound 4, N-lauroyloxypropyl-N,N,N-trimethylammonium iodide] the “Stand-alone biocidal result (microbial log reduction) S. marcescens” value ([1]; 1 hr.) was “TNTC”, the “Stand-alone biocidal result (microbial log reduction) S. marcescens” value ([1]; 4 hr.) was “TNTC” and the “Stand-alone biocidal result (microbial log reduction) P. aeruginosa” value ([2]; 1 hr.) was 2.0. The “Stand-alone biocidal result (microbial log reduction) P. aeruginosa” value ([2]; 4 hr.) was 3.0, the log reduction at 25 ppm ([3]; 1 hr.) was 0.1 and the log reduction at 25 ppm ([3]; 4 hr.) was 0.6. The log reduction at 25 ppm ([4]; 1 hr.) was 0, the log reduction at 25 ppm ([4]; 4 hr.) was 0.1 and the “Stand-alone biocidal result (microbial log reduction) S. aureus” value ([5]; 1 hr.) was “TNTC”. For the same molecule, the “Stand-alone biocidal result (microbial log reduction) S. aureus” value ([5]; 4 hr.) was “TNTC”.

For `CCCCCCCCCCCCCC(=O)OCCC[N+](C)(C)C` [Compound 5, N-myristoyloxypropyl-N,N,N-trimethylammonium iodide], the “Stand-alone biocidal result (microbial log reduction) S. marcescens” value ([1]; 1 hr.) was 3.4, the “Stand-alone biocidal result (microbial log reduction) S. marcescens” value ([1]; 4 hr.) was >4.6 and the “Stand-alone biocidal result (microbial log reduction) P. aeruginosa” value ([2]; 1 hr.) was >4.6. The “Stand-alone biocidal result (microbial log reduction) P. aeruginosa” value ([2]; 4 hr.) was >4.6, the log reduction at 25 ppm ([3]; 1 hr.) was 3.2 and the log reduction at 25 ppm ([3]; 4 hr.) was 3.3. For the same molecule, the log reduction at 25 ppm ([4]; 1 hr.) was 1.9, the log reduction at 25 ppm ([4]; 4 hr.) was 3.4 and the “Stand-alone biocidal result (microbial log reduction) S. aureus” value ([5]; 1 hr.) was >4.7. The “Stand-alone biocidal result (microbial log reduction) S. aureus” value ([5]; 4 hr.) was >4.7.

For `CCCCCCCCCCCCCCCCCC(=O)OCCC[N+](C)(C)C` [Compound 7, N-stearoyloxypropyl-N,N,N-trimethylammonium iodide], the “Stand-alone biocidal result (microbial log reduction) S. marcescens” value ([1]; 1 hr.) was “TNTC”, the “Stand-alone biocidal result (microbial log reduction) S. marcescens” value ([1]; 4 hr.) was “TNTC” and the “Stand-alone biocidal result (microbial log reduction) P. aeruginosa” value ([2]; 1 hr.) was 2.0. The “Stand-alone biocidal result (microbial log reduction) P. aeruginosa” value ([2]; 4 hr.) was 3.3, the log reduction at 25 ppm ([3]; 1 hr.) was 2.9 and the log reduction at 25 ppm ([3]; 4 hr.) was 3.5. For the same molecule, the log reduction at 25 ppm ([4]; 1 hr.) was 0.7, the log reduction at 25 ppm ([4]; 4 hr.) was 2.5 and the “Stand-alone biocidal result (microbial log reduction) S. aureus” value ([5]; 1 hr.) was 3.5. The “Stand-alone biocidal result (microbial log reduction) S. aureus” value ([5]; 4 hr.) was >4.8.

For `CCCCCCCCCCCCCC(=O)OCCC[N+](C)(C)CCCC` [Compound 10, N-myristoyloxypropyl-N-butyl-N,N-dimethylammonium iodide], the “Stand-alone biocidal result (microbial log reduction) S. marcescens” value ([1]; 1 hr.) was 3.8, the “Stand-alone biocidal result (microbial log reduction) S. marcescens” value ([1]; 4 hr.) was >4.8 and the “Stand-alone biocidal result (microbial log reduction) P. aeruginosa” value ([2]; 1 hr.) was >4.7. The “Stand-alone biocidal result (microbial log reduction) P. aeruginosa” value ([2]; 4 hr.) was 4.7, the log reduction at 25 ppm ([3]; 1 hr.) was > 4.5 and the log reduction at 25 ppm ([3]; 4 hr.) was > 4.5. The log reduction at 25 ppm ([4]; 1 hr.) was 4.5, the log reduction at 25 ppm ([4]; 4 hr.) was > 4.8 and the “Stand-alone biocidal result (microbial log reduction) S. aureus” value ([5]; 1 hr.) was >4.8. The “Stand-alone biocidal result (microbial log reduction) S. aureus” value ([5]; 4 hr.) was >4.8.

In the case of `CCCCCCCCCCCCCC(=O)OCCC[N+](C)(C)CCCCCCCCCC` [Compound 13, N-myristoyloxypropyl-N-decyl-N,N-dimethylammonium iodide], the “Stand-alone biocidal result (microbial log reduction) S. marcescens” value ([1]; 1 hr.) is reported as “TNTC”, the “Stand-alone biocidal result (microbial log reduction) S. marcescens” value ([1]; 4 hr.) is reported as 2.9 and the “Stand-alone biocidal result (microbial log reduction) P. aeruginosa” value ([2]; 1 hr.) is reported as 3.5. The “Stand-alone biocidal result (microbial log reduction) P. aeruginosa” value ([2]; 4 hr.) was 4.7, the log reduction at 25 ppm ([3]; 1 hr.) was 1.5 and the log reduction at 25 ppm ([3]; 4 hr.) was 3.1. For the same molecule, the log reduction at 25 ppm ([4]; 1 hr.) was 0.5, the log reduction at 25 ppm ([4]; 4 hr.) was 1.2 and the “Stand-alone biocidal result (microbial log reduction) S. aureus” value ([5]; 1 hr.) was 3.8. The “Stand-alone biocidal result (microbial log reduction) S. aureus” value ([5]; 4 hr.) was 4.8.

In the case of `CCCCCCCCCCCCCC(=O)OCCOCC[N+](C)(C)C` [Compound 15, N-myristoyloxyethoxyethyl-N,N,N-trimethylammonium iodide], the “Stand-alone biocidal result (microbial log reduction) S. marcescens” value ([1]; 1 hr.) is reported as 3.8, the “Stand-alone biocidal result (microbial log reduction) S. marcescens” value ([1]; 4 hr.) is reported as >4.8 and the “Stand-alone biocidal result (microbial log reduction) P. aeruginosa” value ([2]; 1 hr.) is reported as >4.7. The “Stand-alone biocidal result (microbial log reduction) P. aeruginosa” value ([2]; 4 hr.) was >4.7, the log reduction at 25 ppm ([3]; 1 hr.) was 3.8 and the log reduction at 25 ppm ([3]; 4 hr.) was 4.1. The log reduction at 25 ppm ([4]; 1 hr.) was 3.6, the log reduction at 25 ppm ([4]; 4 hr.) was 4.6 and the “Stand-alone biocidal result (microbial log reduction) S. aureus” value ([5]; 1 hr.) was >4.8. For the same molecule, the “Stand-alone biocidal result (microbial log reduction) S. aureus” value ([5]; 4 hr.) was >4.8.

With `CCCCCCCCCCCCCC(=O)NCCC[N+](C)(C)C.[I-]` [N-myristamidopropyl-N,N,N-trimethylammonium iodide, reference compound] the “Effectiveness against S. marcescens (stand-alone biocidal data)” value (“Effectiveness against S. marcescens” below) [1] was “failed”, the “Effectiveness against P. aeruginosa (stand-alone biocidal data)” value (shortened to “Effectiveness against P. aeruginosa”) [2] was “proved effective” and the “Effectiveness against F. solani (stand-alone biocidal data)” value (“Effectiveness against F. solani” for short) [3] was “failed”. For the same molecule, the “Effectiveness against C. albicans (stand-alone biocidal data)” value (“Effectiveness against C. albicans” below) [4] was “failed” and the “Effectiveness against S. aureus (stand-alone biocidal data)” value (“Effectiveness against S. aureus” for short) [5] was “proved effective”.

With `CCCCCCCCCCCCCC(=O)NCCCN(C)C` [N-myristamidopropyl-N,N-dimethylamine, reference compound] the “Effectiveness against S. marcescens” value [1] was “not effective”, the “Effectiveness against P. aeruginosa” value [2] was “effective” and the “Effectiveness against F. solani” value [3] was “effective”. For the same molecule, the “Effectiveness against C. albicans” value [4] was “effective” and the “Effectiveness against S. aureus” value [5] was “effective”.

In the case of `CCCCCCCCCCCCCC(=O)OCCCN(C)C` [N-myristoyloxypropyl-N,B-dimethylamine, reference compound], the “Effectiveness against S. marcescens” value [1] is reported as “failed to be effective”, the “Effectiveness against P. aeruginosa” value [2] is reported as “failed to be effective” and the “Effectiveness against F. solani” value [3] is reported as “failed to be effective”. The “Effectiveness against C. albicans” value [4] was “failed to be effective” and the “Effectiveness against S. aureus” value [5] was “failed to be effective”.

Source: patent US20040115160A1, “Quaternary ammonium esters for disinfection and preservation” (priority 2002, published 2004)
